Test results: PMC11091863 (RSC Advances, 2024)

Columns and labels:
α-amylase = assay: In vitro α-amylase inhibitory assay; settings: for IC50: read-out: The α-amylase activity: IC50 ± SD, DF = 100
α-glucosidase = assay: In vitro α-glucosidase inhibitory assay; assay type: biochemical; settings: for α-Glucosidase activity: IC50 ± SD: DF = 100, five concentrations 10, 5, 1, 0.1, 0.01 μg mL^−1
[1] = molecular target: T1, Human PPAR-γ (Peroxisome Proliferator-Activated Receptor Gamma) (Homo sapiens, UniProt P37231); assay: In vitro PPAR-γ transactivation assay; assay type: biochemical; settings: for PPAR-γ Folds: folds compared to Pioglitazone (= 1)
T1 sequence (P37231 1-505): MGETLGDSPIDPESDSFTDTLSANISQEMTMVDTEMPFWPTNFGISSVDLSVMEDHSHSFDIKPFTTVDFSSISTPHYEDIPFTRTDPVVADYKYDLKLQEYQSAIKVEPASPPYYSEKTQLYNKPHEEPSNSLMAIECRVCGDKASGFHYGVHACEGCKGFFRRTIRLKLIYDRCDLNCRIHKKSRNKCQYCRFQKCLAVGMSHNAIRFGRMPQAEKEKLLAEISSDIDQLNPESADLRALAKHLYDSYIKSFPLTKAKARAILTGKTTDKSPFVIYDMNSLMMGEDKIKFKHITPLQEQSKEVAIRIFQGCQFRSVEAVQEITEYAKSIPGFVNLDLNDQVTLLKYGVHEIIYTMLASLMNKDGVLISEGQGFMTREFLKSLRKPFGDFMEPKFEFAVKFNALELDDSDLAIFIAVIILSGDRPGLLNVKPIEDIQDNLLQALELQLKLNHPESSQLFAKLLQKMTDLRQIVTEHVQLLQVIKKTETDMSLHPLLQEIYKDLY

Structure (SMILES) | The α-amylase activity: Inhibitory percentage at 100 μg mL^−1 (α-amylase) | α-Glucosidase activity: Inhibitory potential at 10 μg mL^−1 (α-glucosidase) | IC50 [1] | PPAR-γ Folds [1] | IC50 (α-amylase) | α-Glucosidase activity: IC50 ± SD (α-glucosidase) | Increase of α-amylase inhibitory potency, fold (α-amylase; compound 2 relative to derivative 3)
C[C@H]1O[C@H](O[C@H]2[C@H](O)[C@@H](O)[C@@H](O[C@H]3[C@H](O)[C@@H](O)C(O)O[C@@H]3CO)O[C@@H]2CO)[C@H](O)[C@@H](O)[C@@H]1N[C@H]1C=C(CO)[C@@H](O)[C@H](O)[C@H]1O (stereo partly drawn) [Acarbose, reference compound] | 96.5% | 90.1% | – | – | – | – | –
CCOC(=O)c1ccc(NC(=O)c2cc3cc(S(N)(=O)=O)ccc3oc2=O)cc1 [Compound 9, Ethyl 4-(2-oxo-6-sulfamoyl-2H-chromene-3-carboxamido)benzoate] | 96.6% | 83.8% | 8.9 µM | ~1.32 | 1.08 ± 0.02 µM | 2.44 ± 0.09 µg/mL | –
NS(=O)(=O)c1ccc2oc(=O)c(C(=O)Nc3cccc(C(F)(F)F)c3)cc2c1 [Compound 7, 2-Oxo-6-sulfamoyl-N-(3-(trifluoromethyl)phenyl)-2H-chromene-3-carboxamide] | 96.2% | – | – | – | 4.39 ± 0.06 µM | – | –
CC(=O)c1cc2cc(S(N)(=O)=O)ccc2oc1=O [Compound 4, 3-Acetyl-2-oxo-2H-chromene-6-sulfonamide] | 94.2% | – | – | – | 8.55 ± 0.31 µM | – | –
N#Cc1cc2cc(S(N)(=O)=O)ccc2oc1=N [Compound 2, 3-Cyano-2-imino-2H-chromene-6-sulfonamide] | 96.1% | 90.7% | 12.6 µM | ~1.55 | 1.76 ± 0.01 µM | 0.548 ± 0.02 µg/mL | ~8.31 fold

Next, values leading:

The α-amylase activity: Inhibitory percentage at 100 μg mL^−1 (α-amylase) | α-Glucosidase activity: Inhibitory potential at 10 μg mL^−1 (α-glucosidase) | IC50 [1] | PPAR-γ Folds [1] | IC50 (α-amylase) | α-Glucosidase activity: IC50 ± SD (α-glucosidase) | Increase of α-amylase inhibitory potency, fold (α-amylase; compound 2 relative to derivative 3) | Structure (SMILES)
95.4% | – | – | – | 2.11 ± 0.03 µM | – | – | NS(=O)(=O)c1ccc2oc(=O)c(C(=O)Nc3ccc(F)cc3)cc2c1 [Compound 6, N-(4-fluorophenyl)-2-oxo-6-sulfamoyl-2H-chromene-3-carboxamide]
93.4% | – | – | – | 32.6 ± 0.33 µM | – | – | CCOC(=O)c1cc2cc(S(N)(=O)=O)ccc2oc1=O [Compound 5, Ethyl 2-oxo-6-sulfamoyl-2H-chromene-3-carboxylate]
96% | – | – | – | 14.6 ± 0.16 µM | – | – | N#CC(C#N)=C(N)c1cc2cc(S(N)(=O)=O)ccc2oc1=N [Compound 3, 3-(1-Amino-2,2-dicyanovinyl)-2-imino-2H-chromene-6-sulfonamide]
95.4% | – | – | – | 4.23 ± 0.06 µM | – | – | NS(=O)(=O)c1ccc2oc(=O)c(C(=O)Nc3ccc(Cl)cc3)cc2c1 [Compound 8, N-(4-chlorophenyl)-2-oxo-6-sulfamoyl-2H-chromene-3-carboxamide]
